For experiment [1], the system named is Mycobacterium tuberculosis. Kind of experiment: Antituberculosis activity against Mycobacterium tuberculosis H37Rv assessed as growth inhibition at 250 ug/ml after 12 to 28 days by Lowenstein-Jensen method relative to control. The class given is functional. As to conditions: read-out: GI.
The test system of the next experiment is Trichophyton rubrum. Description: Antifungal activity against Trichophyton rubrum MTCC 296 assessed as growth inhibition by broth microdilution method. The format is functional. A general note: Broth dilution looks for growth in wells or tubes with falling amounts of substance.
The test system of the next experiment is Candida albicans. Description: Antifungal activity against Candida albicans MTCC 227 assessed as growth inhibition by broth microdilution method. The class given is functional.
Another experiment has as its system Pseudomonas aeruginosa. Kind of experiment: Antibacterial activity against Pseudomonas aeruginosa MTCC 1688 assessed as growth inhibition by broth microdilution method. The class given is functional.
The next experiment has as its system Salmonella typhi. Description: Antibacterial activity against Salmonella typhi MTCC 98 assessed as growth inhibition by broth microdilution method. As to conditions: Salmonella enterica. The format is functional, Salmonella enterica subsp. enterica serovar Typhi.
The test system of a further experiment is Clostridium tetani. Description: Antibacterial activity against Clostridium tetani MTCC 449 assessed as growth inhibition by broth microdilution method. The class given is functional.
The test system of a further experiment is Escherichia coli. Description: Antibacterial activity against Escherichia coli MTCC 443 assessed as growth inhibition by broth microdilution method. The class given is functional.
The next experiment concerns Staphylococcus aureus. Kind of experiment: Antibacterial activity against Staphylococcus aureus MTCC 96 assessed as growth inhibition by broth microdilution method. The format is functional.
A further experiment has as its system Bacillus subtilis. Description: Antibacterial activity against Bacillus subtilis MTCC 441 assessed as growth inhibition by broth microdilution method. The class given is functional.

Where only a bound is given, the exact number is not on record here.

A word on the MIC: it is the lowest concentration found to suppress growth.

As for `C=CCn1c(=O)c(C2C(C(=O)OC(C)C)=C(N)N(NC(=O)c3ccncc3)C3=C2C(=O)CCC3)cc2cc(C)ccc21` (centres undefined), the inhibition of growth at 250 µg/mL in [1] was found to be 22%. The MIC with Trichophyton rubrum amounted to 1000 µg/mL; in the experiment on Candida albicans, 1000 µg/mL; in the experiment on Pseudomonas aeruginosa, 500 µg/mL; in the experiment on Salmonella typhi, 200 µg/mL; with Clostridium tetani, 500 µg/mL; with Escherichia coli it was 250 µg/mL. Moreover, the MIC with Staphylococcus aureus and with Bacillus subtilis was 500 µg/mL in each case.
For the compound `C=CCn1c(=O)c(C2C(C(=O)OC(C)C)=C(N)N(NC(=O)c3ccncc3)C3=C2C(=O)CC(C)(C)C3)cc2cc(OC)ccc21` (centres undefined), in [1], the inhibition of growth at 250 µg/mL turned out to be 74%. Further, the MIC came out at 500 µg/mL in the experiment with Trichophyton rubrum; 1000 µg/mL in the experiment with Candida albicans; 250 µg/mL in the experiment on Pseudomonas aeruginosa; 250 µg/mL in the experiment with Salmonella typhi; 500 µg/mL in the experiment with Clostridium tetani; 200 µg/mL in the experiment with Escherichia coli. For the same compound, the MIC in the experiment with Staphylococcus aureus came to 500 µg/mL; in the experiment with Bacillus subtilis, 250 µg/mL.
Regarding `O=C(N[C@H](CO)[C@H](O)c1ccc([N+](=O)[O-])cc1)C(Cl)Cl` [CHLORAMPHENICOL], the minimum inhibitory concentration (MIC) in the experiment on Pseudomonas aeruginosa, in the experiment on Salmonella typhi, in the experiment on Clostridium tetani, with Escherichia coli, in the experiment with Staphylococcus aureus and in the experiment with Bacillus subtilis was 50 µg/mL throughout.
Regarding `C=CCn1c(=O)c(C2C(C(=O)OCC)=C(N)N(NC(=O)c3ccncc3)C3=C2C(=O)CCC3)cc2ccccc21` (centres undefined), the inhibition of growth at 250 µg/mL in [1] stood at 51%. Moreover, the minimum inhibitory concentration (MIC) with Trichophyton rubrum is > 1000 µg/mL; in the experiment with Candida albicans it was 500 µg/mL; in the experiment on Pseudomonas aeruginosa, 500 µg/mL; in the experiment on Salmonella typhi, 250 µg/mL; in the experiment with Clostridium tetani, 250 µg/mL; in the experiment on Escherichia coli, 500 µg/mL. Moreover, the minimal inhibitory concentration (MIC) in the experiment on Staphylococcus aureus amounted to 250 µg/mL; in the experiment on Bacillus subtilis it was 500 µg/mL.
For the compound `CC1(C)S[C@@H]2[C@H](NC(=O)[C@H](N)c3ccccc3)C(=O)N2[C@H]1C(=O)O` [AMPICILLIN], the minimum inhibitory concentration (MIC) stood at 100 µg/mL in the experiment with Salmonella typhi; 250 µg/mL in the experiment with Clostridium tetani; 100 µg/mL in the experiment on Escherichia coli; 250 µg/mL in the experiment on Staphylococcus aureus; 250 µg/mL in the experiment with Bacillus subtilis.
In the case of `C=CCn1c(=O)c(C2C(C(=O)OC(C)C)=C(N)N(NC(=O)c3ccncc3)C3=C2C(=O)CCC3)cc2cc(Cl)ccc21` (centres undefined), the inhibition of growth at 250 µg/mL in [1] came out at 89%. Moreover, the minimal inhibitory concentration (MIC) with Trichophyton rubrum is 500 µg/mL; with Candida albicans, 500 µg/mL; in the experiment with Pseudomonas aeruginosa it was 200 µg/mL; in the experiment on Salmonella typhi it was 500 µg/mL; in the experiment with Clostridium tetani, 200 µg/mL; in the experiment on Escherichia coli, 250 µg/mL. Moreover, the MIC in the experiment with Staphylococcus aureus and in the experiment on Bacillus subtilis was 200 µg/mL throughout.
Regarding `O=C(O)c1cn(C2CC2)c2cc(N3CCNCC3)c(F)cc2c1=O` [CIPROFLOXACIN], the results for the MIC in the experiment with Salmonella typhi, with Escherichia coli and in the experiment with Staphylococcus aureus were 25 µg/mL, 25 µg/mL and 50 µg/mL, respectively.
`C=CCn1c(=O)c(C2C(C(=O)OCC)=C(N)N(NC(=O)c3ccncc3)C3=C2C(=O)CC(C)(C)C3)cc2cc(Cl)ccc21` (centres undefined): in experiment [1], the inhibition of growth at 250 µg/mL turned out to be 56%. The MIC in the experiment with Trichophyton rubrum was determined as 500 µg/mL; with Candida albicans it was 1000 µg/mL; with Pseudomonas aeruginosa, 100 µg/mL; in the experiment on Salmonella typhi it was 200 µg/mL; in the experiment with Clostridium tetani it was 250 µg/mL; with Escherichia coli, 200 µg/mL. Moreover, the MIC with Staphylococcus aureus came out at 250 µg/mL; in the experiment with Bacillus subtilis it was 200 µg/mL.
For NYSTATIN, the MIC in the experiment with Trichophyton rubrum and in the experiment on Candida albicans was 100 µg/mL in each case.
As to `CCn1cc(C(=O)O)c(=O)c2cc(F)c(N3CCNCC3)cc21` [NORFLOXACIN], the minimum inhibitory concentration (MIC) in the experiment on Pseudomonas aeruginosa is 10 µg/mL; in the experiment on Salmonella typhi, 10 µg/mL; in the experiment on Clostridium tetani it was 50 µg/mL; in the experiment on Escherichia coli, 10 µg/mL; with Staphylococcus aureus it was 10 µg/mL; with Bacillus subtilis, 100 µg/mL.
In the case of `COC1=CC(=O)C[C@@H](C)[C@]12Oc1c(Cl)c(OC)cc(OC)c1C2=O` [GRISEOFULVIN], the minimal inhibitory concentration (MIC) worked out at 100 µg/mL in the experiment on Trichophyton rubrum and 500 µg/mL in the experiment on Candida albicans.

Source of the values: ChEMBL document CHEMBL2401638, “Design and synthesis of biquinolone-isoniazid hybrids as a new class of antitubercular and antimicrobial agents” (Eur J Med Chem, 2013).
